According to PMC7919047, “Trichilianones A-D, Novel Cyclopropane-Type Limonoids from Trichilia adolfi” (Molecules, 2021):
In brackets after ≈: the same amount, converted by molar mass. Like-named read-outs stand apart in the source and are kept apart here.

Key:
[1] = test system: L. braziliensis promastigotes; experiment: In vitro leishmanicidal activity against promastigotes (optical density, 72 h); assay type: cell-based; settings: Leishmania braziliensis, read-out: Leishmanicidal activity L.b, IC50
Protocol: (§1) Leishmanicidal activity was assayed according to Williams, with some modification. Promastigotes of Leishmania: L. amazonensis, Clone 1, NHOM-BR-76-LTB-012 (Lma, donated by the Paul Sabatier Université, France) and L. braziliensis M2904 C192 RJA (M2904, donated by Dr. Jorge Arévalo from Universidad Peruana Cayetano Heredia, Peru). The strains were cultured in Schneider’s insect medium (pH 6.2), supplemented with 10% FBS and incubated in 96-microwell plates at 26 °C. Briefly, promastigotes in logarithmic phase of growth, at concentration of 106 parasites/mL, were exposed to samples dissolved in DMSO (1%) at different concentrations (3.1–100 μg/mL). Miltefosine (3.1–100 μg/mL, IDPS, France) was used as control drug. The microwell plates were incubated for 72 h at 26 °C, the optical density of each well was measured and the IC50 values calculated. All assays were performed in triplicate.

[2] = test system: Leishmania amazonensis promastigotes; experiment: as above; assay type: cell-based; settings: read-out: Leishmanicidal activity L.a., IC50
Protocol: as §1

[3] = Cytotoxicity in Raw 264.7 murine macrophage cell cultures (resazurin, 72 h); assay type: cell-based; settings: mouse, Raw 264.7 murine macrophages, 72 h at 37 °C, 6.2–200 μg/mL, triplicate
Protocol: The Raw 264.7 murine macrophage cell line was purchased from the American-Type Culture Collection (ATCC-TIB71). The cells were maintained in DMEM-HG medium supplemented with 10% fetal bovine serum, 100 U/mL of penicillin and 100 μg/mL of streptomycin, and sodium bicarbonate (2.2 g/L) in humidified atmosphere at 37 °C with 5% CO2. Samples were prepared as described above and added (in 100 μL DMSO) at different concentrations (6.2–200 μg/mL). Medium blank, control drugs and cell growth controls were included to evaluate cell viability. The plates were incubated for 72 h at 37 °C with 5% CO2. After incubation for the indicated time, the cells were washed, after which 10 μL of Resazurin reagent (2.0 mM) was added. They were further incubated at 37 °C for 3 h in a humidified incubator. The IC50 values were assessed using a fluorometric reader (540 nm excitation, 590 nm emission) and Gen5 software. All assays were performed in triplicate.

COC(=O)CC1C(C)(C)OC(=O)C=C2OC3(C)C45C(=O)CC(c6ccoc6)C4(C)C(OC(C)=O)C(O)C35C21C (stereo not shown) [Compound 1, Trichilianone A]
IC50 ([1]; 72 h): > 100 µg/mL | IC50 ([2]; 72 h): > 100 µg/mL | IC50 at 72 h [3]: 64 ± 23 µg/mL (≈ 118 µM) | melting point: 181 °C

COC(=O)CC1C(C)(C)OC(=O)CC2OC3(C)C45C(=O)CC(c6ccoc6)C4(C)C(OC(C)=O)C(O)C35C21C (stereo not shown) [Compound 2, Trichilianone B]
IC50 ([1]; 72 h): > 100 µg/mL | IC50 ([2]; 72 h): > 100 µg/mL | IC50 at 72 h ([3]; Raw 264.7 macrophage cells): 75 ± 18 µg/mL (≈ 138 µM) | melting point: 145 °C

COC(=O)CC1C(C)(C)OC(=O)CC2OC3(C)C45C(=O)CC(c6ccoc6)C4(C)C(OC(C)=O)C(OC(=O)C(C)C)C35C21C (stereo not shown) [Compound 3, Trichilianone C]
IC50 ([1]; 72 h): > 100 µg/mL | IC50 ([2]; 72 h): > 100 µg/mL | IC50 at 72 h ([3]; Raw 264.7 macrophage cells): 70 ± 27 µg/mL (≈ 114 µM) | melting point: 151 °C

COC(=O)CC1C(C)(C)OC(=O)C=C2OC3(C)C45C(=O)CC(C6=CCOC6=O)C4(C)C(OC(C)=O)C(O)C35C21C (stereo not shown) [Compound 4, Trichilianone D]
IC50 ([1]; 72 h): > 100 µg/mL | IC50 ([2]; 72 h): > 100 µg/mL | IC50 at 72 h [3]: 76 ± 23 µg/mL (≈ 136 µM) | melting point: 175 °C

CCCCCCCCCCCCCCCCOP(=O)([O-])OCC[N+](C)(C)C [Miltefosine, reference compound]
IC50 ([1]; L. braziliensis M2904 C192 RJA promastigotes, 72 h at 26 °C, 3.1–100 μg/mL, triplicate): 4.1 ± 0.5 µg/mL (≈ 10.1 µM) | IC50 ([2]; L. amazonensis Clone 1 NHOM-BR-76-LTB-012 promastigotes, 72 h at 26 °C, 3.1–100 μg/mL, triplicate): 5 ± 0.2 µg/mL (≈ 12.3 µM) | IC50 at 72 h ([3]; Raw 264.7 macrophage cells): 21 ± 2 µg/mL (≈ 51.5 µM)
